SMILES strings stand for the structures.

The nature of this test: Inhibition of I309-induced chemotaxis in L1.2 cells expressing CCR8.
Regarding `O=C(NC1CCN(Cc2cccc(Oc3ccccc3Cl)c2)CC1)C1(c2ccccc2)CCNC1` (racemic) [(+/-) 3-phenyl-pyrrolidine-3-carboxylic acid {1-[3-(2-chloro-phenoxy)-benzyl]-piperidin-4-yl}-amide], it took 22 nM to reach half-maximal inhibition (IC50).

On to `CCN1CCC(C(=O)NC2CCN(Cc3cccc(Oc4ccccc4Cl)c3)CC2)(c2ccccc2)CC1` [1-ethyl-4-phenyl-piperidine-4-carboxylic acid {1-[3-(2-chloro-phenoxy)-benzyl]-piperidin-4-yl}-amide], for which the IC50 (usually the midpoint of a concentration-inhibition curve) was 43 nM.

`CCN1CCC(C(=O)NC2CCN(Cc3cccc(Oc4ccccc4OC)c3)CC2)(c2ccccc2)CC1` [1-ethyl-4-phenyl-piperidine-4-carboxylic acid {1-[3-(2-methoxy-phenoxy)-benzyl]-piperidin-4-yl}-amide] yielded an IC50 of 56 nM.

In the case of `CC(C)(C(=O)O)N1CCC(C(=O)NC2CCN(Cc3cccc(Oc4ccccc4Cl)c3)CC2)(c2ccccc2)C1` (configuration not stated) [2-(3-((1-(3-(2-chlorophenoxy)benzyl)piperidin-4-yl)carbamoyl)-3-phenylpyrrolidin-1-yl)-2-methylpropanoic acid], the IC50 came out at 1 nM.

As for `CC(C)(C(=O)O)N1CCC(C(=O)NC2CCN(Cc3cccc(Oc4ccccc4Cl)c3)CC2)(c2ccccc2)CC1` [2-(4-{1-[3-(2-chloro-phenoxy)-benzyl]-piperidin-4-ylcarbamoyl}-4-phenyl-piperidin-1-yl)-2-methyl-propionic acid], the IC50 amounted to 4 nM.

`COc1ccccc1Oc1cccc(CN2CCC(NC(=O)C3(c4ccccc4)CCNCC3)CC2)c1` [4-phenyl-piperidine-4-carboxylic acid {1-[3-(2-methoxy-phenoxy)-benzyl]-piperidin-4-yl}-amide] had an IC50 of 11 nM.

`COc1ccccc1Oc1cccc(CN2CCC(NC(=O)Cc3ccccc3)CC2)c1` [N-{1-[3-(2-methoxy-phenoxy)-benzyl]-piperidin-4-yl}-2-phenyl-acetamide] yielded an IC50 of 55 nM.

The values are drawn from BindingDB's records for doi:10.1021/jm050965z (Millennium Pharmaceuticals, 2006).
